Numbered stars: 1 amine (or outer) side, 2 acyl side, 3 side chain; on linkers, the order of the positions; unused ones are H or OH. Square brackets hold non-standard residues; d marks the D form. Side chains are listed from the residue outwards. Peptide text beside a SMILES is read from it. * marks the point of attachment. C18 diacid = O=C(O)CCCCCCCCCCCCCCCCC(=O)*; αMePhe(2-F) = C[C@](N)(Cc1ccccc1F)C(=O)O; γGlu = O=C(O)[C@H](CCC(=O)[*:2])N[*:1]; αMeY = C[C@](N)(Cc1ccc(O)cc1)C(=O)O; αMeL = CC(C)C[C@](C)(N)C(=O)O; Nle = CCCC[C@H](N)C(=O)O; Orn = NCCC[C@H](N)C(=O)O; AEEA = NCCOCCOCC(=O)O; Aib = CC(C)(N)C(=O)O
Experiments:
[1] = target: T1, human GIP receptor (Homo sapiens, UniProt P48546); assay: [125I]-GIP binding (SPA), human GIP receptor; details: read-out: hGIPR Ki, nM (SEM, n)
T1 construct: expressed in transfected cells; crude membranes
T1 sequence (P48546 22-466): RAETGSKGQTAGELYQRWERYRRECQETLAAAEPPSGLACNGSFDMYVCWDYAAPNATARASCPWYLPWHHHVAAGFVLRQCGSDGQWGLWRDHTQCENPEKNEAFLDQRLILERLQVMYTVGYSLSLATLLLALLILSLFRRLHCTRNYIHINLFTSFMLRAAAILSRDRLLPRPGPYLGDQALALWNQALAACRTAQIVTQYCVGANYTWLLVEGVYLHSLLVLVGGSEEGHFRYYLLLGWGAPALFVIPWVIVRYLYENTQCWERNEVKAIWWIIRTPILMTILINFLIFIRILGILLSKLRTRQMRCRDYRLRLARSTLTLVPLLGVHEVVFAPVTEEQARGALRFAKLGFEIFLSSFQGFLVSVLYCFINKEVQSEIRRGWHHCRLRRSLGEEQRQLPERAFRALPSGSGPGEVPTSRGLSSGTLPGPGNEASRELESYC

[2] = target: T2, gastric inhibitory peptide receptor (GIPR) (Homo sapiens, UniProt P48546); assay: cAMP pharmacological functional assay in presence of casein, hGIPR; assay type: cell-based; details: HEK293 cells expressing hGIPR, 0.1% Casein, geometric mean; read-out: hGIPR cAMP Rel EC50 nM (SEM, n)
T2 sequence (P48546 22-466): T1 sequence (P48546 22-466)

[3] = target: human GLP-1R (Homo sapiens, UniProt P43220); assay: [125I]-GLP-1 binding (SPA), human GLP-1 receptor; set-up: expressed in transfected cells; crude membranes; details: read-out: hGLP1R Ki, (nM) (SEM, n)
In short: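 Frozen cell pellets are lysed on ice in hypotonic Tris buffer, pH 7.5, homogenized, and centrifuged to a membrane pellet resuspended at about 1 to 3 mg/mL. Binding is then measured in HEPES-based buffer at pH 7.4, and curves are fitted to give IC50 and Ki.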

[4] = target: T3, human Gcg receptor (Homo sapiens, UniProt P47871); assay: [125I]-Glucagon binding (SPA), human Gcg receptor; details: read-out: hGLcgR Ki, nM (SEM, n)
T3 construct: expressed in transfected cells; crude membranes
In short: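 Cell pellets were lysed in hypotonic Tris buffer, pH 7.5, homogenized, and spun at low then high speed to give crude membranes. Ki was derived from the fitted IC50.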

[5] = target: human GLP-1 receptor (GLP-1R) (Homo sapiens, UniProt P43220); assay: cAMP pharmacological functional assay in presence of casein, hGLP-1R; assay type: cell-based; details: HEK293 cells expressing hGLP-1R, 0.1% Casein, geometric mean; read-out: hGLP1R cAMP Rel EC50 nM (SEM, n)
Chain of human GLP-1 receptor (GLP-1R) (P43220 24-463): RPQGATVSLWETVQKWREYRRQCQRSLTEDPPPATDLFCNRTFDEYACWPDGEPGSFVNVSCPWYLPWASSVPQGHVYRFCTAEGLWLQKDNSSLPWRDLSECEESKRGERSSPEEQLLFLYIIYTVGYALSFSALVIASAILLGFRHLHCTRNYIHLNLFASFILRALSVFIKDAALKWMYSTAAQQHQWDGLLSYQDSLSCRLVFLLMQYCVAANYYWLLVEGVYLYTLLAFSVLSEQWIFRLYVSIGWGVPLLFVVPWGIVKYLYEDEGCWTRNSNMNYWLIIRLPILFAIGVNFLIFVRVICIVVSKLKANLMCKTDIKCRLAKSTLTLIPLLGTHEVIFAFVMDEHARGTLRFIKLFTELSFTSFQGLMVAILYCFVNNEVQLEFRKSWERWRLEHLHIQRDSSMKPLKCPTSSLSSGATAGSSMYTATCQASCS

Chain of human GLP-1R (P43220 24-463): as above
T3 sequence (P47871 26-477): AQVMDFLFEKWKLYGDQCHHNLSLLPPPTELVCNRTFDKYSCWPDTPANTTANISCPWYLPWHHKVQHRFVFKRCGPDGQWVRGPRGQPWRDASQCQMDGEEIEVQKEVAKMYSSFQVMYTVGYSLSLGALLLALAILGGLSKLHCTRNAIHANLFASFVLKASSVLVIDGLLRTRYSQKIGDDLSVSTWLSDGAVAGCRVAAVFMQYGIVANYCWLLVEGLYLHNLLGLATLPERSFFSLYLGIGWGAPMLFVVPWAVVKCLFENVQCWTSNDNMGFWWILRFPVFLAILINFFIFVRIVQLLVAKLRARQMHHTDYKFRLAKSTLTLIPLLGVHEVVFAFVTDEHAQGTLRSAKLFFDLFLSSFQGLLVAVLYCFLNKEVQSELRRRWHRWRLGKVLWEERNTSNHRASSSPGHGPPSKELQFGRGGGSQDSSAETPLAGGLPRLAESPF

| Compound | Ki [1] [nM] | EC50 [2] [nM] | Ki [3] [nM] | Ki [4] [nM] | EC50 [5] [nM] |
| --- | --- | --- | --- | --- | --- |
| CC[C@H](C)[C@H](NC(=O)[C@H](CC(C)C)NC(=O)[C@](C)(Cc1ccc(O)cc1)NC(=O)[C@@H](CCC(=O)O)NC(=O)[C@@H](NC(=O)[C@H](Cc1ccccc1)NC(=O)[C@H](C)NC(=O)C(C)(C)NC(=O)[C@H](CCC(N)=O)NC(=O)[C@H](C)NC(=O)[C@H](CCCCNC(=O)COCCOCCNC(=O)COCCOCCNC(=O)CC[C@H](NC(=O)CCCCCCCCCCCCCCCCC(=O)O)C(=O)O)NC(=O)[C@H](CCCN)NC(=O)[C@H](CC(=O)O)NC(=O)[C@H](CC(C)C)NC(=O)[C@](C)(CC(C)C)NC(=O)[C@@H](NC(=O)[C@H](CO)NC(=O)[C@H](CC(C)C)NC(=O)[C@H](CC(=O)O)NC(=O)[C@H](CO)NC(=O)[C@@H](NC(=O)[C@](C)(Cc1ccccc1F)NC(=O)[C@@H](NC(=O)CNC(=O)[C@H](CCC(=O)O)NC(=O)C(C)(C)NC(=O)[C@@H](N)Cc1ccc(O)cc1)[C@@H](C)O)[C@@H](C)O)[C@@H](C)CC)[C@@H](C)CC)C(=O)N[C@@H](CCC(=O)O)C(=O)NCC(=O)NCC(=O)N1CCC[C@H]1C(=O)N[C@@H](CO)C(=O)N[C@@H](CO)C(=O)NCC(=O)N[C@@H](C)C(=O)N1CCC[C@H]1C(=O)N1CCC[C@H]1C(=O)N1CCC[C@H]1C(=O)N[C@@H](CO)C(N)=O [Example 244] (H-Y[Aib]EGT[αMePhe(2-F)]TSDLSI[αMeL]LD[Orn]K([AEEA-AEEA-γGlu-C18 diacid])AQ[Aib]AFI[dE][αMeY]LIEGGPSSGAPPPS-NH2) | 0.0308 | 0.0225 | 0.82 | 87.8 | 0.0252 |
| CC[C@H](C)[C@H](NC(=O)[C@H](CC(C)C)NC(=O)[C@](C)(Cc1ccc(O)cc1)NC(=O)[C@@H](CCC(=O)O)NC(=O)[C@@H](NC(=O)[C@H](Cc1ccccc1)NC(=O)[C@H](C)NC(=O)C(C)(C)NC(=O)[C@H](CCC(N)=O)NC(=O)[C@H](C)NC(=O)[C@H](CCCCNC(=O)COCCOCCNC(=O)COCCOCCNC(=O)CC[C@H](NC(=O)CCCCCCCCCCCCCCCCC(=O)O)C(=O)O)NC(=O)[C@H](CCCN)NC(=O)[C@H](CC(=O)O)NC(=O)[C@H](CC(C)C)NC(=O)[C@](C)(CC(C)C)NC(=O)[C@@H](NC(=O)[C@H](CO)NC(=O)[C@H](C)NC(=O)[C@H](CC(=O)O)NC(=O)[C@H](CO)NC(=O)[C@@H](NC(=O)[C@](C)(Cc1ccccc1F)NC(=O)[C@@H](NC(=O)CNC(=O)[C@H](CCC(=O)O)NC(=O)C(C)(C)NC(=O)[C@@H](N)Cc1ccc(O)cc1)[C@@H](C)O)[C@@H](C)O)[C@@H](C)CC)[C@@H](C)CC)C(=O)N[C@@H](CCC(=O)O)C(=O)NCC(=O)NCC(=O)N1CCC[C@H]1C(=O)N[C@@H](CO)C(=O)N[C@@H](CO)C(=O)NCC(=O)N[C@@H](C)C(=O)N1CCC[C@H]1C(=O)N1CCC[C@H]1C(=O)N1CCC[C@H]1C(=O)N[C@@H](CO)C(N)=O [Example 246] (H-Y[Aib]EGT[αMePhe(2-F)]TSDASI[αMeL]LD[Orn]K([AEEA-AEEA-γGlu-C18 diacid])AQ[Aib]AFI[dE][αMeY]LIEGGPSSGAPPPS-NH2) | 0.0509 | 0.0258 | 0.812 | > 1010 | 0.0144 |
| CC[C@H](C)[C@H](NC(=O)[C@H](CC(C)C)NC(=O)[C@H](Cc1ccc(O)cc1)NC(=O)[C@@H](CCC(=O)O)NC(=O)[C@@H](NC(=O)[C@H](Cc1ccccc1)NC(=O)[C@H](CCC(=O)O)NC(=O)C(C)(C)NC(=O)[C@H](CCC(N)=O)NC(=O)[C@H](C)NC(=O)[C@H](CCCCNC(=O)COCCOCCNC(=O)COCCOCCNC(=O)CC[C@H](NC(=O)CCCCCCCCCCCCCCCCC(=O)O)C(=O)O)NC(=O)[C@H](CCCN)NC(=O)[C@H](CC(=O)O)NC(=O)[C@H](CC(C)C)NC(=O)C(C)(C)NC(=O)[C@@H](NC(=O)[C@H](CO)NC(=O)[C@H](Cc1ccc(O)cc1)NC(=O)[C@H](CC(=O)O)NC(=O)[C@H](CO)NC(=O)[C@@H](NC(=O)C(C)(Cc1ccccc1F)NC(=O)[C@@H](NC(=O)CNC(=O)[C@H](CCC(=O)O)NC(=O)C(C)(C)NC(=O)[C@@H](N)Cc1ccc(O)cc1)[C@@H](C)O)[C@@H](C)O)[C@@H](C)CC)[C@@H](C)CC)C(=O)N[C@@H](CCC(=O)O)C(=O)NCC(=O)NCC(=O)N1CCC[C@H]1C(=O)N[C@@H](CO)C(=O)N[C@@H](CO)C(=O)NCC(=O)N[C@@H](C)C(=O)N1CCC[C@H]1C(=O)N1CCC[C@H]1C(=O)N1CCC[C@H]1C(=O)N[C@@H](CO)C(N)=O (stereo partly shown) [Example 247] | > 55.1 | 0.0622 | 4.39 | > 1100 | 0.0491 |
| CC[C@H](C)[C@H](NC(=O)[C@H](CC(C)C)NC(=O)[C@H](Cc1ccc(O)cc1)NC(=O)[C@@H](CCC(=O)O)NC(=O)[C@@H](NC(=O)[C@H](Cc1ccccc1)NC(=O)[C@H](CCC(=O)O)NC(=O)C(C)(C)NC(=O)[C@H](CCC(N)=O)NC(=O)[C@H](C)NC(=O)[C@H](CCCCNC(=O)COCCOCCNC(=O)COCCOCCNC(=O)CC[C@H](NC(=O)CCCCCCCCCCCCCCCCC(=O)O)C(=O)O)NC(=O)[C@H](CCCN)NC(=O)[C@H](CC(=O)O)NC(=O)[C@H](CC(C)C)NC(=O)[C@H](CC(C)C)NC(=O)[C@@H](NC(=O)[C@H](CO)NC(=O)[C@H](Cc1ccc(O)cc1)NC(=O)[C@H](CC(=O)O)NC(=O)[C@H](CO)NC(=O)[C@@H](NC(=O)[C@](C)(Cc1ccccc1F)NC(=O)[C@@H](NC(=O)CNC(=O)[C@H](CCC(=O)O)NC(=O)C(C)(C)NC(=O)[C@@H](N)Cc1ccc(O)cc1)[C@@H](C)O)[C@@H](C)O)[C@@H](C)CC)[C@@H](C)CC)C(=O)N[C@@H](CCC(=O)O)C(=O)NCC(=O)NCC(=O)N1CCC[C@H]1C(=O)N[C@@H](CO)C(=O)N[C@@H](CO)C(=O)NCC(=O)N[C@@H](C)C(=O)N1CCC[C@H]1C(=O)N1CCC[C@H]1C(=O)N1CCC[C@H]1C(=O)N[C@@H](CO)C(N)=O [Example 248] (H-Y[Aib]EGT[αMePhe(2-F)]TSDYSILLD[Orn]K([AEEA-AEEA-γGlu-C18 diacid])AQ[Aib]EFI[dE]YLIEGGPSSGAPPPS-NH2) | 0.0397 | 0.0328 | 2.4 | > 1050 | 0.0428 |
| CCCC[C@H](NC(=O)[C@@H](NC(=O)[C@H](CO)NC(=O)[C@H](Cc1ccc(O)cc1)NC(=O)[C@H](CC(=O)O)NC(=O)[C@H](CO)NC(=O)[C@@H](NC(=O)[C@](C)(Cc1ccccc1F)NC(=O)[C@@H](NC(=O)CNC(=O)[C@H](CCC(=O)O)NC(=O)C(C)(C)NC(=O)[C@@H](N)Cc1ccc(O)cc1)[C@@H](C)O)[C@@H](C)O)[C@@H](C)CC)C(=O)N[C@@H](CC(C)C)C(=O)N[C@@H](CC(=O)O)C(=O)N[C@@H](CCCN)C(=O)N[C@@H](CCCCNC(=O)COCCOCCNC(=O)COCCOCCNC(=O)CC[C@H](NC(=O)CCCCCCCCCCCCCCCCC(=O)O)C(=O)O)C(=O)N[C@@H](C)C(=O)N[C@@H](CCC(N)=O)C(=O)NC(C)(C)C(=O)N[C@@H](CCC(=O)O)C(=O)N[C@@H](Cc1ccccc1)C(=O)N[C@H](C(=O)N[C@H](CCC(=O)O)C(=O)N[C@@H](Cc1ccc(O)cc1)C(=O)N[C@@H](CC(C)C)C(=O)N[C@H](C(=O)N[C@@H](CCC(=O)O)C(=O)NCC(=O)NCC(=O)N1CCC[C@H]1C(=O)N[C@@H](CO)C(=O)N[C@@H](CO)C(=O)NCC(=O)N[C@@H](C)C(=O)N1CCC[C@H]1C(=O)N1CCC[C@H]1C(=O)N1CCC[C@H]1C(=O)N[C@@H](CO)C(N)=O)[C@@H](C)CC)[C@@H](C)CC [Example 249] (H-Y[Aib]EGT[αMePhe(2-F)]TSDYSI[Nle]LD[Orn]K([AEEA-AEEA-γGlu-C18 diacid])AQ[Aib]EFI[dE]YLIEGGPSSGAPPPS-NH2) | 0.0394 | 0.0437 | 2.35 | > 1000 | 0.0446 |
